Assays:
[1] = Induction of […] generation assessed as bleaching rate of ABDA under white light irradiation relative to control; type: functional
HeLa = assay: Photodynamic activity in human HeLa cells assessed as light dose required to kill 50% of cells by fluorescein diacetate and propidium iodide dye based fluorescence assay; type: functional

Compound	Activity [1]	Activity (HeLa)
C=Cc1c(C)c2cc3nc(c(CC(=O)O)c4[nH]c(cc5nc(cc1[nH]2)C(C)=C5CC)c(C)c4C(=O)O)C(CCC(=O)O)C3C (centres undefined)	16.7%	
CCC[n+]1cc2ccc(-c3ccc(N(c4ccccc4)c4ccccc4)cc3)cc2c(-c2ccccc2)c1-c1ccccc1.F[B-](F)(F)F		3.7 kJ/cm2
Cc1ccc(N(c2ccc(C)cc2)c2ccc(-c3ccc(/C=C/c4cc[n+](C)cc4)s3)cc2)cc1	90.7%	
O=C(O)c1c(Cl)c(Cl)c(Cl)c(Cl)c1-c1c2cc(I)c(=O)c(I)c-2oc2c(I)c(O)c(I)cc12	55.6%	

Source: ChEMBL document CHEMBL4354851, “Aggregation-Induced Emission Photosensitizers: From Molecular Design to Photodynamic Therapy” (2020)
